Earlier results in patent publication US20030198619A1, “Formulation and dosage form for increasing oral bioavailability of hydrophilic macromolecules” (priority 2001, published 2003).
Read-outs that look alike come from different tables or passages of the source.

How the values were obtained:
[1] = in vivo

oral bioavailability [1]	elimination half-life in urine (after oral administration)	oral bioavailability (in humans)	elimination half-life (mean value following IV injection)	Compound
about 0.15%	–	–	–	NC(=O)CC[C@@H]1NC(=O)[C@H](Cc2ccccc2)NC(=O)[C@H](Cc2ccc(O)cc2)NC(=O)CCSSC[C@@H](C(=O)N2CCC[C@H]2C(=O)N[C@H](CCCN=C(N)N)C(=O)NCC(N)=O)NC(=O)[C@H](CC(N)=O)NC1=O [dDAVP, Desmopressin]
–	4.8 h	approximately 3%	24 h	pentosan polysulfate sodium [PPS]
